Data published in paper PMC12639566, “Identification of antimalarial drugs and bradykinin as ligands of the Plasmodium membrane protein PfSR10” (iScience, 2025).
Peptide text beside a SMILES is read from it.

Experiments:
PfSR10 [1] = target: T1, PfSR10 (Plasmodium falciparum, UniProt Q8I5P8); assay: Gq-Gγ dissociation BRET assay in PfSR10-overexpressing HEK293 cells; format: cell-based
Description: (§1) To characterize the G protein signalling properties of PfSR10, G protein BRET probes were generated according to previous publication.[50] The Gqo BRET probes were generated by replacing the six amino acids of the C- terminus of Gq -RlucII with those from GoA1, creating a chimeric Gqo-RlucII subunit.[51] HEK293 cells or COS-7 cells were co-transfected with PfSR10 and various G protein probes (Gi, Gq and Gqo). Forty-eight hours post-transfection, cells were washed twice with HBSS, resuspended with HBSS buffer, and seeded into a 96-well plate at a density of 5x10^4 per well. After adding increasing concentrations of ligand (CQ, DHA, PIP-TT, PQ, Bradykinin, des-Arg9-bradykinin, bradykinin-Arg-FITC, FITC-bradykinin) together with luciferase substrate coelenterazine 400a (5 μM, Cayman), the BRET signals between […] (440-480 nm) and GFP2 (510 nm) emissions were examined by a Mithras LB 940 Multimode Microplate Reader (Berthold Technologies). The BRET signal was calculated as the ratio of the GFP2 emission to Nluc emission.

PcSR10 = PcSR10 (Plasmodium chabaudi, UniProt A0A4V0KCI5); assay: Gi dissociation assay in HEK293 cells overexpressing PcSR10; format: cell-based; conditions: read-out: Gi activity EC50 downstream of PcSR10
Sequence of PcSR10 (A0A4V0KCI5 entry or part of it): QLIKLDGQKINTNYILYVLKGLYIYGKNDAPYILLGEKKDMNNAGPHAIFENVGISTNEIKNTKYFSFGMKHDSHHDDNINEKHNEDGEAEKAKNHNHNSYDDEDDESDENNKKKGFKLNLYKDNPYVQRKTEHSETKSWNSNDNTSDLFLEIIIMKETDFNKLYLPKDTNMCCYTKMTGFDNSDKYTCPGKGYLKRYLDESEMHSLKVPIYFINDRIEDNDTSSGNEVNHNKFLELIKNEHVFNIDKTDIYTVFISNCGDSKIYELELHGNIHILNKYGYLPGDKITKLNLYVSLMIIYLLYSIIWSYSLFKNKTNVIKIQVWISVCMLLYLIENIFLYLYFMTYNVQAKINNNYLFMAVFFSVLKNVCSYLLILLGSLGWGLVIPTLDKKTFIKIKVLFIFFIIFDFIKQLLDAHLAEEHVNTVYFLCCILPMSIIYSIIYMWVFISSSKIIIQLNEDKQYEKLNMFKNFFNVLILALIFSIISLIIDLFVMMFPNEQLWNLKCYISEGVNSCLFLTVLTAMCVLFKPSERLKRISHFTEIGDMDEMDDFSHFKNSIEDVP

PfSR10 [2] = target: T1, PfSR10; assay: Gi1-Gγ dissociation BRET assay in PfSR10-overexpressing HEK293 cells; format: cell-based; conditions: for Gi1 coupling with PfSR10 (in words): G protein dissociation assay
Description: as §1

PfSR10 [3] = target: T1, PfSR10; assay: GloSensor-cAMP assay, inhibition of forskolin-induced cAMP in PfSR10-overexpressing HEK293 cells; format: cell-based
Experimental: (§2) To examine the constitutive activity of PfSR10, we transfected HEK293 cells with different concentrations of the receptor, including PfSR10, ADGRG2, ADGRG3. For measuring the anti-malarial drugs, bradykinin or des-Arg9-bradykinin-induced inhibition of forskolin-stimulated cAMP level in HEK293 cells or COS-7 cells, the receptor encoding plasmid (PfSR10 or its mutants) or empty plasmid (pcDNA3.1) was co-transfected with the GloSensor plasmid and incubated in an incubator at 37°C with 5% CO2 for 24 h. The transfected cells were then inoculated on 96-well plates (at a density of 4 × 10^4 / well) and incubated in incubators under the same conditions for another 24 hours. Cells were precultured with serum-free medium (Gibco) containing 5% DILUTED GloSensor™cAMP reagent Reserve solution (Progema) for 2 h. The base cAMP signal was directly measured using a multimode tablet reader (PerkinElmer Envision). At the same time, the cAMP signal induced by DHA, PIP-TT, PQ, CQ bradykinin or des-Arg9-bradykinin was detected after adding agonists into the corresponding Wells. Finally, the s-shaped dose response function in GraphPad Prism 7.0 was used to analyze the data.

PySR10 = PySR10 (Plasmodium yoelii, UniProt V7PQD6); assay: Gi dissociation assay in HEK293 cells overexpressing PySR10; format: cell-based; conditions: read-out: Gi activity EC50 downstream of PySR10
Sequence of PySR10 (V7PQD6 entry or part of it): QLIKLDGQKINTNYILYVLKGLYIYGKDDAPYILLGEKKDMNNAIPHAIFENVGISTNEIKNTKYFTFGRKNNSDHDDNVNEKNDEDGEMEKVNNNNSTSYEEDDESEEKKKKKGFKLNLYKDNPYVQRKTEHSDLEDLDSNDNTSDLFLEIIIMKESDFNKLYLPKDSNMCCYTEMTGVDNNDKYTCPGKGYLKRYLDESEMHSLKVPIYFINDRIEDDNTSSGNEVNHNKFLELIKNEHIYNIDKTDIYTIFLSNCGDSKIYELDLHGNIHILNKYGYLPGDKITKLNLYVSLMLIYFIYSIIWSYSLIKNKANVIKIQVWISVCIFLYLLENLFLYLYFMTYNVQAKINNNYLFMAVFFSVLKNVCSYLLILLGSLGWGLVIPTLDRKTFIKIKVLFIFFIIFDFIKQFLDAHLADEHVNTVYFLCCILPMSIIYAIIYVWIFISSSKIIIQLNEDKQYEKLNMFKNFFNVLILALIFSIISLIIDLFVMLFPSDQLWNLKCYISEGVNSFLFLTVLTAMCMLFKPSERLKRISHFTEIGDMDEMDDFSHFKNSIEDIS

PfSR10 [4] = target: T1, PfSR10; assay: cAMP inhibition in PfSR10-overexpressing COS-7 cells; format: cell-based; conditions: read-out: EC50 in COS-7 cell
Experimental: as §2

PfSR10 [5] = target: T1, PfSR10; assay: FlAsH-BRET assay of PfSR10 extracellular conformational changes; format: cell-based; conditions: for ECL3 movement relative to the PfSR10 N-terminus, S6 sensor: S6 (site 6) sensor site; for ECL1 movement relative to the PfSR10 N-terminus: concentration-dependent
Experimental: To characterize the binding properties of different ligands (CQ, DHA, PIP-TT, PQ, bradykinin or des-Arg9-bradykinin) to PfSR10, a FlAsH BRET assay was performed as previously described.[29]^,[32]^,[49] We seeded HEK293 cells or COS-7 cells in 6-well plate were transfected with PfSR10 FlAsH BRET sensors (S1 to S6 as indicated in Figure 4B) and incubated for 48 h at 37°C in 5% CO2. The overexpressed PfSR10 sensors cells were washed with FlAsH BRET buffer (25 mM HEPES, 1 mM CaCl2, 140 mM NaCl, 2.7 mM KCl, 0.9 mM MgCl2, 0.37 mM NaH2PO4, 5.5 mM D-glucose, 12 mM NaHCO3) and incubated with 2.5 μM FlLAsH EDT2 (pre-diluted in FLAsH BRET buffer) for 40min at 37°C in 5% CO2. The cells were washed twice, resuspended with FlAsH BRET buffer, and seeded into a 96-well plate at a density of 5x10^4 per well. After adding increasing concentrations of ligand (CQ, DHA, PIP-TT, PQ, bradykinin or des-Arg9-bradykinin) together with luciferase substrate coelenterazine-h (5 μM), the BRET signals between Nluc (440-480 nm) and FlAsH fluorescent moiety (525-585 nm) emissions were examined by a Mithras LB 940 Multimode Microplate Reader.

[6] = target: PcSR10 (SR10 of Plasmodium chabaudi) (Plasmodium chabaudi)
[7] = target: PySR10 (SR10 of Plasmodium yoelii) (Plasmodium yoelii)
[8] = HEK293 cells overexpressing PfSR10, mean ± SEM

T1 sequence (Q8I5P8 entry or part of it): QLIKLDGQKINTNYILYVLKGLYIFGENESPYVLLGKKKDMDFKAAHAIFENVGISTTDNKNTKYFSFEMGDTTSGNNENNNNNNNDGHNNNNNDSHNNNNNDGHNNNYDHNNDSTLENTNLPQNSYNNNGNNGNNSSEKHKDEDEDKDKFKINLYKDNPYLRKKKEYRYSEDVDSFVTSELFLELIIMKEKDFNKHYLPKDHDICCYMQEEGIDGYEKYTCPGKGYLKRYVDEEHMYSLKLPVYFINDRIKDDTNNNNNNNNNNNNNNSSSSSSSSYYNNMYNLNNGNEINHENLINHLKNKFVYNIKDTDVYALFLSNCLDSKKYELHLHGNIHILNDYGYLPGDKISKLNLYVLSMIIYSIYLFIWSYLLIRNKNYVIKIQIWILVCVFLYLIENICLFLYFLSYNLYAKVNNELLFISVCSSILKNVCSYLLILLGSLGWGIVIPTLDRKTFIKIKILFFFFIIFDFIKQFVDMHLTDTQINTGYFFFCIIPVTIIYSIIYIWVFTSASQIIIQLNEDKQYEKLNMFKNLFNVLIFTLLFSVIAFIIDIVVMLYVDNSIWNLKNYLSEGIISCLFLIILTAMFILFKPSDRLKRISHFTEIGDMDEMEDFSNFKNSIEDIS

Row | Molecule | EC50 (PfSR10 [2]) [pM] | EC50 (PfSR10 [3]) [pM] | Gi1 coupling with PfSR10 (in words) (PfSR10 [2]) | ECL3 movement relative to the PfSR10 N-terminus, S6 sensor (PfSR10 [5]) | ECL1 movement relative to the PfSR10 N-terminus (PfSR10 [5]) | cAMP inhibition Emax (PfSR10 [3]; [8]) | other results
1 | NC(N)=NCCC[C@H](NC(=O)[C@H](Cc1ccccc1)NC(=O)[C@@H]1CCCN1C(=O)[C@H](CO)NC(=O)[C@H](Cc1ccccc1)NC(=O)CNC(=O)[C@@H]1CCCN1C(=O)[C@@H]1CCCN1C(=O)[C@@H](N)CCCN=C(N)N)C(=O)O [bradykinin] (H-RPPGFSPFR-OH) | 380 ± 110 | 1820 ± 830 | – | – | – | – | EC50 (PfSR10 [1]): 530 ± 60 pM; EC50 (PcSR10): 150 ± 5 pM; EC50 (PySR10): 670 ± 290 pM
2 | N=C(N)NCCC[C@H](N)C(=O)N1CCC[C@H]1C(=O)N1CCC[C@H]1C(=O)NCC(=O)N[C@@H](Cc1ccccc1)C(=O)N[C@@H](CO)C(=O)N1CCC[C@H]1C(=O)N[C@@H](Cc1ccccc1)C(=O)O [des-Arg9-bradykinin] | – | – | promoted Gi1 coupling to PfSR10 | – | – | – | EC50 (PfSR10 [4]): 290 ± 80 pM; ECL movements of PfSR10 by FlAsH-BRET sensors (kinin peptides) (PfSR10 [5]): movement of ECL1 and ECL3 toward the N-terminus and separation of the ECL2 region and N-terminus of PfSR10; Fsk-induced cAMP level elevation (in words) (PfSR10 [3]; PfSR10-overexpressing HEK293 cells, concentration-dependent): significantly inhibited
3 | Clc1ccc2c(N3CCN(CCCN4CCN(c5ccnc6cc(Cl)ccc56)CC4)CC3)ccnc2c1.O=P(O)(O)O [PIP-TT, piperaquine-tetraphosphate-tetrahydrate] | – | – | promoted Gi1 coupling with PfSR10 | separation of ECL3 from the PfSR10 N-terminus | inward movement of ECL1 toward the PfSR10 N-terminus | 1.070 ± 0.09 × 10^3 | Gi1-dissociation Emax (PfSR10 [2]; [8]): -13.00 ± 1.00 × 10^-3; EC50 (PfSR10 [2]; HEK293 cells overexpressing PfSR10, mean ± SEM, read-out: Gi1-dissociation EC50): 9180 ± 5230 pM; EC50 (PfSR10 [3]; inhibition of Fsk-induced cAMP elevation, HEK293 cells overexpressing PfSR10, mean ± SEM, n=3, read-out: cAMP inhibition EC50): 400 ± 120 pM
4 | CCN(CC)CCCC(C)Nc1ccnc2cc(Cl)ccc12 (stereo not drawn) [CQ, chloroquine] | 750 ± 60 | 36600 ± 2970 | promoted Gi1 coupling with PfSR10 | separation of ECL3 from the PfSR10 N-terminus | inward movement of ECL1 toward the PfSR10 N-terminus | 0.958 ± 0.03 × 10^3 | –
5 | RPPGFSPFR [bradykinin] | – | – | – | – | – | – | EC50 of Gi activity downstream of PcSR10, concentration-dependent [6]: 150 pM; EC50 of Gi activity downstream of PySR10, concentration-dependent [7]: 670 pM
